Experimental data reported in PubChem BioAssay AID588376 (Sanford-Burnham Center for Chemical Genomics, 2011).
Calls of active or inactive are those of the source. How the calls were made is not given here.

The compounds below were run against Bcl-2-related protein A1 (Mus musculus) (UniProt Q07440) (assay: off-target activity on mouse Bfl-1 – biochemical, set 2, counter-screen for UBC13 polyubiquitination inhibitor project, SAR follow-up (AID 588376)). Conditions: Bfl-1 biochemical counterscreen, dose response.
Chain of Bcl-2-related protein A1 (Mus musculus) (Q07440 whole entry, looked up): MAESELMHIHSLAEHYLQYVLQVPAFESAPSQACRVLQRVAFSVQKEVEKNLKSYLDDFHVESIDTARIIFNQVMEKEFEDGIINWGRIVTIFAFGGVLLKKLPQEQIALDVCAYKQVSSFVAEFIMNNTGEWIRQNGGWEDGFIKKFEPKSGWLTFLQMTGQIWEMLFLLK

IC50 | SMILES
> 100 µM (inactive) | Cc1nc2cc(F)ccc2n1C1CCN(CC(=O)Nc2ccccc2)CC1
> 100 µM (inactive) | O=C(NCCCN1CCN(c2ccccc2)CC1)C1CCCN(c2ncnc3c2nc2n3CCCCC2)C1 (configuration not stated)
> 100 µM (inactive) | O=C(CN1CCC(n2cnc3cc(F)ccc32)CC1)Nc1cccc(C(F)(F)F)c1
> 100 µM (inactive) | O=C(NCCCN1CCN(c2ccc(F)cc2)CC1)C1CCCN(c2ncnc3c2nc2n3CCCCC2)C1 (configuration not stated)
> 100 µM (inactive) | O=C(C1CCN(c2ncnc3c2nc2n3CCCCC2)CC1)N1CCN(c2ncccn2)CC1
> 100 µM (inactive) | O=C(CN1CCC(n2cnc3cc(F)ccc32)CC1)Nc1ccccc1Br
> 100 µM (inactive) | COC(=O)c1c(NC(=O)C(=O)NCC2CCCO2)sc2c1CC(C)(C)OC2 (configuration not stated)
> 100 µM (inactive) | Cc1nc2ccccc2n1C1CCN(CC(=O)Nc2ccccc2Oc2ccccc2)CC1
> 100 µM (inactive) | Cc1ccc(C)c(N2CCN(CCCNC(=O)C3CCCN(c4ncnc5c4nc4n5CCCCC4)C3)CC2)c1 (configuration not stated)
> 100 µM (inactive) | COc1ccc(NC(=O)CN2CCC(n3c(C)nc4cc(F)ccc43)CC2)c(OC)c1
> 100 µM (inactive) | O=C(C1CCN(c2ncnc3c2nc2n3CCCCC2)CC1)N1CCN(c2ccc(F)cc2)CC1
> 100 µM (inactive) | CCOc1ccccc1NC(=O)CN1CCC(n2cnc3cc(F)ccc32)CC1
> 100 µM (inactive) | CC1(C)Cc2c(sc(NC(=O)C(=O)NCCN3CCOCC3)c2C(N)=O)CO1
> 100 µM (inactive) | O=C(CN1CCC(n2c(C(F)(F)F)nc3cc(F)ccc32)CC1)Nc1ccc2c(c1)OCO2
> 100 µM (inactive) | CCOc1ccc(NC(=O)CN2CCC(n3cnc4cc(F)ccc43)CC2)cc1
> 100 µM (inactive) | CC1(C)Cc2c(sc(NC(=O)C(=O)NCC3CCCO3)c2C(N)=O)CO1 (configuration not stated)
> 100 µM (inactive) | Cc1cccc(N2CCN(CCCNC(=O)C3CCCN(c4ncnc5c4nc4n5CCCCC4)C3)CC2C)c1 (configuration not stated)
> 100 µM (inactive) | COc1ccccc1N1CCN(CCCNC(=O)C2CCCN(c3ncnc4c3nc3n4CCCCC3)C2)CC1 (configuration not stated)
> 100 µM (inactive) | O=C(c1ccco1)N1CCN(C(=O)C2CCN(c3ncnc4c3nc3n4CCCCC3)CC2)CC1
> 100 µM (inactive) | O=C(CN1CCC(n2cnc3cc(C(F)(F)F)ccc32)CC1)Nc1ccc2c(c1)OCCO2
> 100 µM (inactive) | COc1ccc(OC)c(NC(=O)CN2CCC(n3c(C)nc4cc(F)ccc43)CC2)c1
> 100 µM (inactive) | CC1(C)Cc2c(sc(NC(=O)C(=O)NCC3CCCO3)c2C(=O)O)CO1 (configuration not stated)
> 100 µM (inactive) | Cc1cccc(NC(=O)CN2CCC(n3cnc4cc(F)ccc43)CC2)c1C
> 100 µM (inactive) | COc1ccc(OC)c(NC(=O)CN2CCC(n3cnc4cc(F)ccc43)CC2)c1
> 100 µM (inactive) | CC1(C)Cc2c(sc(NC(=O)C(=O)N3CCCC3)c2C(N)=O)CO1
> 100 µM (inactive) | O=C(C1CCN(c2ncnc3c2nc2n3CCCCC2)CC1)N1CCN(c2ccccn2)CC1
> 100 µM (inactive) | O=C(C1CCN(c2ncnc3c2nc2n3CCCCC2)CC1)N1CCN(Cc2ccccc2)CC1
